# Data taken from ChEMBL document CHEMBL4346717, “1,2,4-Triazole-quinoline/quinolone hybrids as potential anti-bacterial agents” (Eur J Med Chem, 2019).
# Key:
# Format in all cases: functional
# Pseudomonas aeruginosa [1] = test: Antibacterial activity against Pseudomonas aeruginosa after 3 to 7 days by cup diffusion method
# Bacillus subtilis [2] = test: Antibacterial activity against Bacillus subtilis assessed as zone of inhibition at 10 mg/ml after 3 to 7 days by cup diffusion method; details: read-out: IZ
# Bacillus subtilis [3] = test: Antibacterial activity against Bacillus subtilis after 3 to 7 days by cup diffusion method
# Mycolicibacterium phlei [4] = test: Antibacterial activity against Mycobacterium phlei clinical isolate assessed as zone of inhibition at 10 mg/ml after 3 to 7 days by cup diffusion method; details: read-out: IZ
# Pseudomonas aeruginosa [5] = test: Antibacterial activity against Pseudomonas aeruginosa assessed as zone of inhibition at 10 mg/ml after 3 to 7 days by cup diffusion method; details: read-out: IZ
# [6] = tested on: Aggregatibacter actinomycetemcomitans; test: Antibacterial activity against Aggregatibacter actinomycetemcomitans ATCC 29524 after 3 to 7 days by cup diffusion method
# Escherichia coli [7] = test: Antibacterial activity against Escherichia coli assessed as zone of inhibition at 10 mg/ml after 3 to 7 days by cup diffusion method; details: read-out: IZ
# Staphylococcus aureus [8] = test: Antibacterial activity against Staphylococcus aureus assessed as zone of inhibition at 10 mg/ml after 3 to 7 days by cup diffusion method; details: read-out: IZ
# [9] = tested on: Aggregatibacter actinomycetemcomitans; test: Antibacterial activity against Aggregatibacter actinomycetemcomitans ATCC 29524 assessed as zone of inhibition at 10 mg/ml after 3 to 7 days by cup diffusion method; details: read-out: IZ
# Mycolicibacterium phlei [10] = test: Antibacterial activity against Mycobacterium phlei clinical isolate after 3 to 7 days by cup diffusion method
# Escherichia coli [11] = test: Antibacterial activity against Escherichia coli after 3 to 7 days by cup diffusion method
# Staphylococcus aureus [12] = test: Antibacterial activity against Staphylococcus aureus after 3 to 7 days by cup diffusion method
# Staphylococcus aureus [13] = test: Antibacterial activity against Staphylococcus aureus
# Escherichia coli [14] = test: Antibacterial activity against Escherichia coli
# Pseudomonas aeruginosa [15] = test: Antibacterial activity against Pseudomonas aeruginosa
# [16] = Pseudomonas aeruginosa, read-out: MIC
# [17] = Bacillus subtilis, read-out: MIC
# [18] = Aggregatibacter actinomycetemcomitans, ATCC 29524, read-out: MIC
# [19] = Mycolicibacterium phlei, read-out: MIC
# [20] = Escherichia coli, read-out: MIC
# [21] = Staphylococcus aureus, read-out: MIC
MIC (Pseudomonas aeruginosa [1]; [16]) [µM],MIC (Bacillus subtilis [3]; [17]) [µM],"MIC [6, 18] [µM]",MIC (Mycolicibacterium phlei [10]; [19]) [µM],MIC (Escherichia coli [11]; [20]) [µM],MIC (Staphylococcus aureus [12]; [21]) [µM],MIC (Pseudomonas aeruginosa [1]),MIC (Bacillus subtilis [3]),MIC [6],MIC (Mycolicibacterium phlei [10]),MIC (Escherichia coli [11]),MIC (Staphylococcus aureus [12]),SMILES,zone of inhibition at 10000 µg/mL (Bacillus subtilis [2]) [mm],zone of inhibition at 10000 µg/mL (Mycolicibacterium phlei [4]) [mm],zone of inhibition at 10000 µg/mL (Pseudomonas aeruginosa [5]) [mm],zone of inhibition at 10000 µg/mL (Escherichia coli [7]) [mm],zone of inhibition at 10000 µg/mL (Staphylococcus aureus [8]) [mm],zone of inhibition at 10000 µg/mL [9] [mm],other results
3.68 to 6.3,3.68 to 6.3,3.68 to 6.3,3.68 to 6.3,3.68 to 6.3,3.68 to 6.3,–,–,–,–,–,–,CCn1cc(-c2nc(NC(=O)c3ccc(Cl)cc3)n[nH]2)c(=O)c2cc(Br)c(C)nc21,20 to 40,20 to 40,20 to 40,20 to 40,20 to 40,20 to 40,–
–,–,–,–,–,–,>=0.031 - 32 ug ml-1,>=0.031 - 32 ug ml-1,>=0.031 - 32 ug ml-1,>=0.031 - 32 ug ml-1,>=0.031 - 32 ug ml-1,>=0.031 - 32 ug ml-1,CCn1cc(-c2nc(NC(=O)c3ccc(F)cc3)n[nH]2)c(=O)c2ccc(C)nc21,20 to 40,20 to 40,20 to 40,20 to 40,20 to 40,20 to 40,–
–,–,–,–,–,–,>=0.031 - 32 ug ml-1,>=0.031 - 32 ug ml-1,>=0.031 - 32 ug ml-1,>=0.031 - 32 ug ml-1,>=0.031 - 32 ug ml-1,>=0.031 - 32 ug ml-1,CCn1cc(-c2nc(NC(=O)c3ccccc3)n[nH]2)c(=O)c2ccc(C)nc21,20 to 40,20 to 40,20 to 40,20 to 40,20 to 40,20 to 40,–
–,–,–,–,–,–,>=0.031 - 32 ug ml-1,>=0.031 - 32 ug ml-1,>=0.031 - 32 ug ml-1,>=0.031 - 32 ug ml-1,>=0.031 - 32 ug ml-1,>=0.031 - 32 ug ml-1,CCn1cc(-c2nc(/N=C/c3ccccc3)n[nH]2)c(=O)c2ccc(C)nc21,20 to 40,20 to 40,20 to 40,20 to 40,20 to 40,20 to 40,–
–,–,–,–,–,–,>=0.031 - 32 ug ml-1,>=0.031 - 32 ug ml-1,>=0.031 - 32 ug ml-1,>=0.031 - 32 ug ml-1,>=0.031 - 32 ug ml-1,>=0.031 - 32 ug ml-1,CCn1cc(-c2nc(/N=C/c3ccc(Br)cc3)n[nH]2)c(=O)c2ccc(C)nc21,20 to 40,20 to 40,20 to 40,20 to 40,20 to 40,20 to 40,–
3.68 to 6.3,3.68 to 6.3,3.68 to 6.3,3.68 to 6.3,3.68 to 6.3,3.68 to 6.3,–,–,–,–,–,–,CCn1cc(-c2nc(/N=C/c3ccccc3O)n[nH]2)c(=O)c2cc(Br)c(C)nc21,20 to 40,20 to 40,20 to 40,20 to 40,20 to 40,20 to 40,–
3.68 to 6.3,3.68 to 6.3,3.68 to 6.3,3.68 to 6.3,3.68 to 6.3,3.68 to 6.3,–,–,–,–,–,–,CCn1cc(-c2nc(/N=C/c3ccc(Cl)cc3)n[nH]2)c(=O)c2cc(Br)c(C)nc21,20 to 40,20 to 40,20 to 40,20 to 40,20 to 40,20 to 40,–

# The remaining lines, values behind:
SMILES,MIC (Pseudomonas aeruginosa [1]; [16]) [µM],MIC (Bacillus subtilis [3]; [17]) [µM],"MIC [6, 18] [µM]",MIC (Mycolicibacterium phlei [10]; [19]) [µM],MIC (Escherichia coli [11]; [20]) [µM],MIC (Staphylococcus aureus [12]; [21]) [µM],MIC (Pseudomonas aeruginosa [1]),MIC (Bacillus subtilis [3]),MIC [6],MIC (Mycolicibacterium phlei [10]),MIC (Escherichia coli [11]),MIC (Staphylococcus aureus [12]),zone of inhibition at 10000 µg/mL (Bacillus subtilis [2]) [mm],zone of inhibition at 10000 µg/mL (Mycolicibacterium phlei [4]) [mm],zone of inhibition at 10000 µg/mL (Pseudomonas aeruginosa [5]) [mm],zone of inhibition at 10000 µg/mL (Escherichia coli [7]) [mm],zone of inhibition at 10000 µg/mL (Staphylococcus aureus [8]) [mm],zone of inhibition at 10000 µg/mL [9] [mm],other results
Nn1c(S)nnc1Cn1c(=O)cc(-c2ccccc2)c2ccc(Cl)cc21,–,–,–,–,–,–,–,–,–,–,–,–,–,–,–,–,–,–,MIC (Staphylococcus aureus [13]): 8 to 256 µg/mL; MIC (Escherichia coli [14]): 8 to 256 µg/mL; MIC (Pseudomonas aeruginosa [15]): 8 to 256 µg/mL
COc1ccc2c(-c3ccccc3)cc(=O)n(Cc3nnc(S)n3N)c2c1,–,–,–,–,–,–,–,–,–,–,–,–,–,–,–,–,–,–,MIC (Staphylococcus aureus [13]): 8 to 256 µg/mL; MIC (Escherichia coli [14]): 8 to 256 µg/mL; MIC (Pseudomonas aeruginosa [15]): 8 to 256 µg/mL
CCn1cc(-c2nc(/N=C/c3ccc(Cl)cc3Cl)n[nH]2)c(=O)c2cc(Br)c(C)nc21,3.68 to 6.3,3.68 to 6.3,3.68 to 6.3,3.68 to 6.3,3.68 to 6.3,3.68 to 6.3,–,–,–,–,–,–,20 to 40,20 to 40,20 to 40,20 to 40,20 to 40,20 to 40,–
Nn1c(S)nnc1Cn1c(=O)cc(-c2ccccc2)c2cccc(Cl)c21,–,–,–,–,–,–,–,–,–,–,–,–,–,–,–,–,–,–,MIC (Staphylococcus aureus [13]): 8 to 256 µg/mL; MIC (Escherichia coli [14]): 8 to 256 µg/mL; MIC (Pseudomonas aeruginosa [15]): 8 to 256 µg/mL
